Measured values taken from the supplement of paper PMC10307832.

How the values were obtained:
Experiment in all cases: relative viability (nuclei count vs DMSO), 5 days (fraction); higher = more cells survive
AZ628 = compound: CC1=C(C=C(C=C1)NC(=O)C2=CC(=CC=C2)C(C)(C)C#N)NC3=CC4=C(C=C3)N=CN(C4=O)C [AZ628]
Method in brief: (§1)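 Lung cancer cell lines in 1536-well plates were exposed by pinning to five library-drug doses (not always all listed) √10 apart, following an overnight hold at 37 °C. MetaXpress counted Hoechst-stained nuclei from 4× images taken after 5 days without medium change. Viability is the median ratio of treated-well to vehicle-well nuclei across plates. Plates required control CV below 25% and at least one doubling.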

QS11 = compound: C1CC2=C(C1)C=C(C=C2)OC3=NC(=C4C(=N3)N(C=N4)CC5=CC=C(C=C5)C6=CC=CC=C6)N[C@@H](CC7=CC=CC=C7)CO [QS11]
Method in brief: as §1

Darinaparsin = compound: C[As](C)SC[C@H](NC(=O)CC[C@H](N)C(=O)O)C(=O)NCC(=O)O [Darinaparsin]
Method in brief: as §1

AZ628 + Dasatinib = compound: CC1=C(C=C(C=C1)NC(=O)C2=CC(=CC=C2)C(C)(C)C#N)NC3=CC4=C(C=C3)N=CN(C4=O)C [AZ628] + Cc1nc(Nc2ncc(C(=O)Nc3c(C)cccc3Cl)s2)cc(N2CCN(CCO)CC2)n1 [Dasatinib] (partner 0.075 µM)
Method in brief: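 For relative viability, nuclei counts in treated wells were divided by those in vehicle wells. Lung cancer cell lines had been pin-tool dosed in 1536-well plates the day after seeding and cultured for 5 days, then fixed and stained in one step (final 0.05% Triton X-100, 1% formaldehyde, 1 ug/ml Hoechst) and imaged at 4×. Doses were one drug alone or a fixed anchor-drug dose plus five library-drug doses (not always all listed) in √10 steps, and values are duplicate-plate medians.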

Cell Line | relative viability (AZ628; 0.08 µM) | relative viability (AZ628; 0.253 µM) | relative viability (AZ628; 0.8 µM) | relative viability (AZ628; 2.53 µM) | relative viability (AZ628; 8 µM) | relative viability (QS11; 0.08 µM) | relative viability (QS11; 0.253 µM) | relative viability (QS11; 0.8 µM) | relative viability (QS11; 2.53 µM) | relative viability (QS11; 8 µM) | relative viability (Darinaparsin; 0.08 µM) | relative viability (Darinaparsin; 0.8 µM) | relative viability (Darinaparsin; 2.53 µM) | relative viability (Darinaparsin; 8 µM) | relative viability (AZ628 + Dasatinib; first compound 0.08 µM) | relative viability (AZ628 + Dasatinib; first compound 0.253 µM) | relative viability (AZ628 + Dasatinib; first compound 0.8 µM) | relative viability (AZ628 + Dasatinib; first compound 2.53 µM) | relative viability (AZ628 + Dasatinib; first compound 8 µM)
RERF-LC-KJ | 1.01 | 0.981 | 0.883 | 0.965 | 0.887 | 0.98 | 0.954 | 0.912 | 0.974 | 0.981 | 1.05 | 1.07 | 0.944 | 1.12 | 0.737 | 0.72 | 0.752 | 0.75 | 0.64
NCI-H1975 | 0.927 | 0.85 | 0.889 | 0.94 | 0.768 | 0.954 | 0.881 | 1.04 | 1.23 | 1.34 | 0.992 | 1.01 | 0.906 | 1.05 | 0.351 | 0.292 | 0.283 | 0.248 | 0.174
EPLC-272H | 0.955 | 0.848 | 0.971 | 0.953 | 0.628 | 0.698 | 1.02 | 0.949 | 0.995 | 0.908 | 0.8 | 0.841 | 0.902 | 0.992 | 0.317 | 0.345 | 0.398 | 0.357 | 0.231
SW 900 | 1.13 | 0.865 | 1.14 | 0.803 | 0.889 | 0.705 | 0.688 | 0.809 | 0.663 | 0.521 | 0.965 | 0.669 | 0.994 | 0.942 | 1.1 | 0.466 | 0.59 | 0.528 | 0.547
HCC-15 | 1.02 | 0.924 | 0.858 | 0.86 | 0.56 | 1.02 | 1.06 | 0.693 | 0.971 | 0.915 | 1.18 | 1 | 0.992 | 1.14 | 0.642 | 0.496 | 0.389 | 0.404 | 0.23
COR-L 105 | 1.01 | 1.14 | 0.951 | 0.928 | 0.592 | 0.895 | 0.89 | 0.822 | 0.892 | 0.831 | 0.996 | 0.986 | 0.781 | 1.03 | 0.358 | 0.419 | 0.285 | 0.312 | 0.244
NCI-H1915 | 0.994 | 0.939 | 0.796 | 0.731 | 0.464 | 0.993 | 1.04 |  | 0.872 | 0.871 | 1.04 | 0.964 | 0.965 | 1.1 | 0.327 | 0.293 | 0.249 | 0.199 | 0.139
NCI-H2347 | 0.775 | 0.895 | 0.854 | 0.76 | 0.485 | 0.938 | 1.05 | 0.873 | 0.906 | 0.906 | 1.05 | 0.961 | 0.994 | 1.19 | 0.272 | 0.278 | 0.22 | 0.252 | 0.163
EKVX | 1.05 | 0.959 | 1 | 0.939 | 0.774 | 0.973 | 0.922 | 0.602 | 0.907 | 1.06 | 1.04 | 0.922 | 0.943 | 1.04 | 0.537 | 0.541 | 0.422 | 0.346 | 0.334
LC-2-ad | 1.07 | 0.911 | 0.88 | 0.928 | 0.768 | 1.01 | 1.05 | 0.808 | 0.972 | 0.955 | 1.06 | 0.996 | 1.01 | 1.2 | 0.713 | 0.419 | 0.396 | 0.365 | 0.149
